Here are results for 18 compounds from patent publication US20170334899A1, “AMINO-SUBSTITUTED ISOTHIAZOLES” (Bayer Pharma Aktiengesellschaft, priority 2014, published 2017).

Read-outs that look alike come from different tables or passages of the source. Bounds are passed on as bounds.

In experiment [1] the target is T1, catalytic domain of human Bub1 (amino acids 704-1085) (Homo sapiens, UniProt O43683).
T1 construct: catalytic domain of human Bub1 (amino acids 704-1085); His6 (N); made in house; host or cells: insect cells (Hi5)
T1 sequence (O43683 704-1085): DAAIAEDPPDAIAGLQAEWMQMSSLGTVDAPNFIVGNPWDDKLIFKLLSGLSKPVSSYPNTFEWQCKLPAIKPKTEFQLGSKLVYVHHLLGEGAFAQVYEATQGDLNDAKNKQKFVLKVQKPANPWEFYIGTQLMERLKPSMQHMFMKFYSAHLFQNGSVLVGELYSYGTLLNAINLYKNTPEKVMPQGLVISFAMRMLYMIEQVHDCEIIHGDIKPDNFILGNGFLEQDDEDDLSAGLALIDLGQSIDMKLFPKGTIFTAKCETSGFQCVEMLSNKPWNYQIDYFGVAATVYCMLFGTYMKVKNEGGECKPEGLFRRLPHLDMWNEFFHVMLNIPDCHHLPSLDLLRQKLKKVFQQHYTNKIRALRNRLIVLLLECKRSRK
Kind of experiment: Bub1 kinase assay (TR-FRET). Conditions: 10 μM ATP, avg, read-out: Bub1 avg (IC50 [mol/l]). The experiment is classed as biochemical. The source says:
Bub1-inhibitory activity of compounds of the present invention was quantified employing the Bub1 TR-FRET assay as described in the following paragraphs.
N-terminally His6-tagged recombinant catalytic domain of human Bub1 (amino acids 704-1085), expressed in insect cells (Hi5) and purified by Ni-NTA affinity chromatography and subsequent size exclusion chromatography, was used as enzyme. As substrate for the kinase reaction the biotinylated peptide biotin-Ahx-VLLPKKSFAEPG (C-terminus in amid form) was used which can be purchased e.g. form the company Biosyntan (Berlin, Germany).
For the assay 50 nl of a 100fold concentrated solution of the test compound in DMSO was pipetted into a black low volume 384well microtiter plate (Greiner Bio-One, Frickenhausen, Germany), 2 μl of a solution of Bub1 in aqueous assay buffer [50 mM Tris/HCl pH 7.5, 10 mM magnesium chloride (MgCl2), 200 mM potassium chloride (KCl), 1.0 mM dithiothreitol (DTT), 0.1 mM sodium ortho-vanadate, 1% (v/v) glycerol, 0.01% (w/v) bovine serum albumine (BSA), 0.005% (v/v) Trition X-100 (Sigma), 1× Complete EDTA-free protease inhibitor mixture (Roche)] were added and the mixture was incubated for 15 min at 22° C. to allow pre-binding of the test compounds to the enzyme before the start of the kinase reaction. Then the kinase reaction was started by the addition of 3 μl of a solution of adenosine-tri-phosphate (ATP, 16.7 μM=>final conc. in the 5 μl assay volume is 10 μM) and substrate (1.67 μM=>final conc. in the 5 μl assay volume is 1 μM) in assay buffer and the resulting mixture was incubated for a reaction time of 60 min at 22° C. The concentration of Bub1 was adjusted depending of the activity of the enzyme lot and was chosen appropriate to have the assay in the linear range, typical concentrations were in the range of 200 ng/ml. The reaction was stopped by the addition of 5 μl of a solution of TR-FRET detection reagents (0.2 μM streptavidine-XL665 [Cisbio Bioassays, Codolet, France] and 1 nM anti-phosho-Serine antibody [Merck Millipore, cat. #35-001] and 0.4 nM LANCE EU-W1024 labeled anti-mouse IgG antibody [Perkin-Elmer, product no. AD0077, as an alternative a Terbium-cryptate-labeled anti-mouse IgG antibody from Cisbio Bioassays can be used]) in an aqueous EDTA-solution (50 mM EDTA, 0.2% (w/v) bovine serum albumin in 100 mM HEPES pH 7.5).
The resulting mixture was incubated 1 h at 22° C. to allow the formation of complex between the phosphorylated biotinylated peptide and the detection reagents. Subsequently the amount of phosphorylated substrate was evaluated by measurement of the resonance energy transfer from the Eu-chelate to the streptavidine-XL. Therefore, the fluorescence emissions at 620 nm and 665 nm after excitation at 350 nm was measured in a TR-FRET reader, e.g. a Rubystar or Pherastar (both from BMG Labtechnologies, Offenburg, Germany) or a Viewlux (Perkin-Elmer). The ratio of the emissions at 665 nm and at […] was taken as the measure for the amount of phosphorylated substrate. The data were normalised (enzyme reaction without inhibitor=0% inhibition, all other assay components but no enzyme=100% inhibition).
In general terms: Time-resolved FRET reads energy transfer from a long-lived donor to a nearby acceptor.

Experiment [2] has as its system human cervical tumor cell line HeLa (ATCC CCL-2). In words: SAC-Formation - Paclitaxel-Induced Assay. The experiment is classed as cell-based. Conditions: 24 h, HeLa cells, paclitaxel 0.05 μM, test range 0.005 μM-20 μM, read-out: IC50 [mol/l] SAC-Formation - Paclitaxel-Induced Assay. The procedure, abridged: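 HeLa cells incubated overnight at 37° C, then given paclitaxel (0.05 μM final) plus test compound (0.005–20 μM, 0.5% DMSO) together for 24 h at 37° C. Fixed cells stained for phospho-histone H3 Ser10 (mitotic cells) and Hoechst 33342 (cell count); imaging-derived mitotic index fitted by four-parameter Hill equation.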

Consider `Cc1nsc(Nc2cnc3ccccc3n2)c1C(=O)Nc1cccc(-c2nnc(C(C)(C)C)o2)c1` [Example 107, N-[3-(5-tert-Butyl-1,3,4-oxadiazol-2-yl)phenyl]-3-methyl-5-(quinoxalin-2-ylamino)-1,2-thiazole-4-carboxamide], for which the IC50 in experiment [1] is at least 20000 nM; in experiment [2] (Homo sapiens, HeLa) it was 210 nM.
For the compound `Cc1nsc(Nc2cncc(C(F)(F)F)n2)c1C(=O)Nc1ccc(C(=O)NC2CCN(CC(F)(F)F)CC2)cc1` [Example 167, 3-methyl-N-(4-{[1-(2,2,2-trifluoroethyl)piperidin-4-yl]carbamoyl}phenyl)-5-{[6-(trifluoromethyl)pyrazin-2-yl]amino}-1,2-thiazole-4-carboxamide], the IC50 was over 20000 nM in experiment [1] and 340 nM in experiment [2] (Homo sapiens, HeLa).
Take `Cc1nsc(Nc2cnc(C(F)(F)F)cn2)c1C(=O)Nc1ccc(O[C@@H]2CCN(CCC(F)(F)F)C2)nc1` [Example 423, 3-Methyl-5-{[5-(trifluoromethyl)pyrazin-2-yl]amino}-N-(6-{[(3R)-1-(3,3,3-trifluoropropyl)pyrrolidin-3-yl]oxy}pyridin-3-yl)-1,2-thiazole-4-carboxamide]: the IC50 in experiment [1] is at least 20000 nM; in experiment [2], 140 nM.
`Cc1nsc(Nc2cnc(C(F)(F)F)cn2)c1C(=O)Nc1ccc(OCC2CCN(C(=O)OC(C)(C)C)C2)nc1` (stereo not drawn) [Example 109, tert-Butyl 3-{[(5-{[(3-methyl-5-{[5-(trifluoromethyl)pyrazin-2-yl]amino}-1,2-thiazol-4-yl)carbonyl]amino}pyridin-2-yl)oxy]methyl}pyrrolidine-1-carboxylate]: the IC50 is at least 20000 nM in experiment [1] and 37 nM in experiment [2] (Homo sapiens, HeLa).
For the compound `Cc1nsc(Nc2cnc3ccccc3n2)c1C(=O)Nc1cccc(C(=O)N2CCCC2)c1` [Example 113, 3-Methyl-N-[3-(pyrrolidin-1-ylcarbonyl)phenyl]-5-(quinoxalin-2-ylamino)-1,2-thiazole-4-carboxamide], the IC50 was found to be 18000 nM in experiment [1] and 1700 nM in experiment [2] (Homo sapiens, HeLa).
As for `CC(=O)N1CCC(Oc2ccc(NC(=O)c3c(C)nsc3Nc3cnc(C(F)(F)F)cn3)cn2)CC1` [Example 11, N-{6-[(1-Acetylpiperidin-4-yl)oxy]pyridin-3-yl}-3-methyl-5-{[5-(trifluoromethyl)-pyrazin-2-yl]amino}-1,2-thiazole-4-carboxamide], the IC50 in experiment [1] was at least 20000 nM; in experiment [2] (Homo sapiens, HeLa), 150 nM.
For `Cc1nsc(Nc2ccc(C#N)cn2)c1C(=O)Nc1ccc(NC2CCCN(C(=O)OC(C)(C)C)C2)nc1` (stereo not drawn) [Example 171, tert-butyt 3-({5-[({5-[(5-cyanopyridin-2-yl)amino]-3-methyl-1,2-thiazol-4-yl}carbonyl)amino]pyridin-2-yl}amino)piperidine-1-carboxylate], the IC50 was over 20000 nM in experiment [1] and 4000 nM in experiment [2] (Homo sapiens, HeLa).
Regarding `Cc1nsc(Nc2cncc(C(F)(F)F)n2)c1C(=O)Nc1ccc(OCC2CCCN(C(=O)OC(C)(C)C)C2)nc1` (stereo not drawn) [Example 166, tert-butyl 3-{[(5-{[(3-methyl-5-{[6-(trifluoromethyl)pyrazin-2-yl]amino}-1,2-thiazol-4-yl)carbonyl]amino}pyridin-2-yl)oxy]methyl}piperidine-1-carboxylate], the IC50 in experiment [1] was over 20000 nM; in experiment [2] (Homo sapiens, HeLa) it was 170 nM.
On to `Cc1nsc(Nc2cnc3ccccc3n2)c1C(=O)Nc1ccc(C(=O)NC2CN(C(=O)OC(C)(C)C)CC(F)(F)C2)cc1` (stereo not drawn) [Example 158, tert-butyl 3,3-difluoro-5-{[4-({[3-methyl-5-(quinoxalin-2-ylamino)-1,2-thiazol-4-yl]carbonyl}amino)benzoyl]amino} piperidine-1-carboxylate], for which the IC50 was over 20000 nM in experiment [1] and 2800 nM in experiment [2] (Homo sapiens, HeLa).
Turning to `CC(=O)Nc1cc(NC(=O)c2c(C)nsc2Nc2ccc(C#N)cn2)ccc1F` [Example 152, N-(3-acetamido-4-fluorophenyl)-5-[(5-cyanopyridin-2-yl)amino]-3-methyl-1,2-thiazole-4-carboxamide], the IC50 in experiment [1] is over 20000 nM; in experiment [2] (Homo sapiens, HeLa), 8800 nM.
Consider `Cc1nsc(Nc2cnc(C(F)(F)F)cn2)c1C(=O)Nc1ccc(OC2CCNCC2)nc1` [Example 6, 3-Methyl-N-[6-(piperidin-4-yloxy)pyridin-3-yl]-5-{[5-(trifluoromethyl)pyrazin-2-yl]amino}-1,2-thiazole-4-carboxamide], for which the IC50 in experiment [1] is at least 20000 nM; in experiment [2] (Homo sapiens, HeLa) it was 19000 nM.
Consider `Cc1nsc(Nc2cnc(C(F)(F)F)cn2)c1C(=O)Nc1ccc(OC2CCN(CCF)CC2)nc1` [Example 7, N-(6-{[1-(2-Fluoroethyl)piperidin-4-yl]oxy}pyridin-3-yl)-3-methyl-5-{[5-(trifluoromethyl)pyrazin-2-yl]amino}-1,2-thiazole-4-carboxamide], for which the IC50 is at least 20000 nM in experiment [1] and 770 nM in experiment [2] (Homo sapiens, HeLa).
The matching figures for `Cc1nsc(Nc2cnc(C(F)(F)F)cn2)c1C(=O)Nc1ccc(OC[C@@H]2CCN(CCC(F)(F)F)C2)nc1` [Example 129, 3-Methyl-5-{[5-(trifluoromethyl)pyrazin-2-yl]amino}-N-(6-{[(3R)-1-(3,3,3-trifluoropropyl)pyrrolidin-3-yl]methoxy}pyridin-3-yl)-1,2-thiazole-4-carboxamide]: over 20000 nM and 84 nM.
The corresponding values for `Cc1nsc(Nc2cncc(C(F)(F)F)n2)c1C(=O)Nc1ccc(F)c(OC2CCN(C(=O)OC(C)(C)C)CC2)c1` [Example 168, tert-butyl 4-(2-fluoro-5-{[(3-methyl-5-{[6-(trifluoromethyl)pyrazin-2-yl]amino}-1,2-thiazol-4-yl)carbonyl]amino}phenoxy)piperidine-1-carboxylate] are over 20000 nM and 75 nM.
For the compound `Cc1nsc(Nc2cncc(C(F)(F)F)n2)c1C(=O)Nc1ccc(OCC2CCN(C(=O)OC(C)(C)C)C2)nc1` (stereo not drawn) [Example 110, tert-Butyl 3-{[(5-{[(3-methyl-5-{[6-(trifluoromethyl)pyrazin-2-yl]amino}-1,2-thiazol-4-yl)carbonyl]amino}pyridin-2-yl)oxy]methyl}pyrrolidine-1-carboxylate], the IC50 in experiment [1] is at least 20000 nM; in experiment [2] (Homo sapiens, HeLa), 150 nM.
`Cc1nsc(Nc2cnc(C(F)(F)F)cn2)c1C(=O)Nc1ccc(OCC2CCN(CCF)C2)nc1` (stereo not drawn) [Example 121, N-(6-{[1-(2-fluoroethyl)pyrrolidin-3-yl]methoxy}pyridin-3-yl)-3-methyl-5-{[5-(trifluoromethyl)pyrazin-2-yl]amino}-1,2-thiazole-4-carboxamide]: the IC50 was at least 20000 nM in experiment [1] and 43 nM in experiment [2] (Homo sapiens, HeLa).
With `Cc1nsc(Nc2cnc(C(F)(F)F)cn2)c1C(=O)Nc1ccc(O[C@H]2CCN(CC(F)(F)F)C[C@H]2F)nc1` [Example 145, N-(6-{[(3R,4S)-3-fluoro-1-(2,2,2-trifluoroethyl)piperidin-4-yl]oxy}pyridin-3-yl)-3-methyl-5-{[5-(trifluoromethyl)pyrazin-2-yl]amino}-1,2-thiazole-4-carboxamide], the IC50 in experiment [1] was over 20000 nM; in experiment [2] (Homo sapiens, HeLa), 37 nM.
Turning to `Cc1noc(-c2cccc(NC(=O)c3c(C)nsc3Nc3cnc4ccccc4n3)c2)n1` [Example 106, 3-Methyl-N-[3-(3-methyl-1,2,4-oxadiazol-5-yl)phenyl]-5-(quinoxalin-2-ylamino)-1,2-thiazole-4-carboxamide], the IC50 is at least 20000 nM in experiment [1] and 130 nM in experiment [2] (Homo sapiens, HeLa).
